Patent US7141660B2, “Genes encoding a nystatin polyketide synthase and their manipulation and utility” (Sinvent AS, priority 2000, dated 2006)

Tested on: Candida albicans
Experiment: bioassay for antifungal activity against Candida albicans
Type: cell-based
Settings: for Activity: Table 5, products of S. noursei nysC mutants, graded against nystatin of wild type (normal)
Procedure: Preliminary analysis of the compounds produced by the S. noursei ERD44 and ERD48 was carried out. It was shown that a heptaenic compound produced by the ERD44 mutant has high antifungal activity against Candida albicans, an organism used in tests for antifungal activity. At this point it is not possible to accurately assay the activity of this compound (tentatively named S44), because it is not yet properly purified, and its exact concentration is difficult to estimate. […] This probably reflects the different states of modifications of the macrolactone ring by i.e. glycosylation at C19, hydroxylation at C10, or oxidation of the methyl group at C16. This could have been expected, since reduction of the macrolactone ring size most probably leads to the lower affinity of the modifying enzymes towards the new substrate.
Antifungal activity of the S48 mixture was tested, and found to constitute approx. 10% of nystatin activity. It seems probable that only one of the compounds in the S48 mixture produced by ERD48, which is fully decorated by the ring-modifying enzymes, is responsible for the antifungal activity detected. Thus, relative antifungal activity of this compound is impossible to assess prior to its purification Some of the […] antibiotics are known to have antibacterial, as well as antifungal activity (Ciftci, et al., J. Antibiot, v. 37: 876–884, 1984). It is thus possible that hexaenic compounds produced by the ERD48 mutant can be used for production of antibacterial agents The changes in the NysC protein leading to production of new polyene compounds in ERD44 and ERD48 mutants, along with the predicted structures of their macrolactone rings are presented in FIG. 5.
The recombinant S.noursei strain selected after this procedure was designated NPR1.1 The S. noursei NPR1.1 recombinant strain was shown by Southern blot analysis to contain the desired deletion in the DH8-coding sequence of nysC. […] The relative mobility of these compounds differed from nystatin, and no UV spectra characteristic for nystatin could be detected in the extracts. […] However, the NPR1 mutant can be potentially useful for further manipulations with the nystatin PKS.

| SMILES | Activity | antifungal activity against Candida albicans (result in words, unpurified compound or culture extracts) | antifungal activity compared to nystatin (rough estimates based on UV absorbance, compound not properly purified, concentration difficult to estimate) |
| --- | --- | --- | --- |
| CC1/C=C/C=C/C=C/C=C/C=C/C=C/C=C/C(O)CC2OC(O)(CC(O)CCCC(O)CC(O)CC(O)CC(=O)OC(C)[C@H](C)C1O)CC(O)C2C (stereo partly shown) [S44] | high | high | 4–5 times |
| C[C@@H]1[C@H](O)[C@@H](C)/C=C/C=C/CC/C=C/C=C/C=C/C=C/C(O[C@H]2O[C@H](C)[C@@H](O)[C@H](N)[C@@H]2O)CC2O[C@](O)(CC(O)C(O)CCC(O)CC(O)CC(O)CC(=O)O[C@H]1C)CC(O)C2C(=O)O (stereo partly shown) [nystatin] | normal | – | – |
